Assay results published in patent publication US20200331855A1, “CO-CRYSTAL OF TOCOPHEROL AND PROLINE AND PREPARATION METHOD THEREOF” (priority 2017, published 2020).

Columns and labels:
[1] = Acceleration test (40° C./75% relative humidity), synthetic tocopherol vs co-crystal, total tocopherol content; format: physicochemical
Method: The content was determined by HPLC, the content was calculated by the external standard method, and the content is calculated based on the total tocopherol content. Both the initial tocopherol contents in the synthetic tocopherol itself and in the co-crystals were set at 100%.

[2] = 200 g lean beef, 69 mg co-crystal or same equivalent, stored at 2-4° C. for 8 days
Method: A. the lean beef was cut into pieces with a size of about 2×2 cm, 200 grams for each.
All samples were placed in a metal dish, numbered and stored at 2-4° C. for 8 days.

[3] = High temperature test (60° C.), content by HPLC and appearance; format: physicochemical
Method: (§1) The content was determined by HPLC, and the content was calculated by the external standard method.

[4] = Strong light irradiation test (5500 Lux), content by HPLC and appearance; format: physicochemical; conditions: 25° C.
Method: as §1

[5] = Accelerated test stability (40° C./75% relative humidity), D-α-tocopherol vs co-crystal; format: physicochemical
Method: as §1

[6] = Long-term test stability (25° C./60% relative humidity); format: physicochemical; conditions: Month 0, initial content set at 100%
Method: as §1

Cc1c(C)c2c(c(C)c1O)CCC(C)(CCCC(C)CCCC(C)CCCC(C)C)O2 (racemic) [synthetic tocopherol, DL-α-tocopherol]
content ([1]; Month 0, initial set at 100%): 100.0% | content ([1]; Month 1): 94.1%

co-crystal of D-α-tocopherol and L-proline
flavor (rancidity) of beef [2]: except for the sample added with the co-crystal of D-α-tocopherol and L-proline, both of the other two samples have rancidity | meat color of beef [2]: can delay the darkening and greening of beef

Cc1c(C)c2c(c(C)c1O)CC[C@@](C)(CCC[C@H](C)CCC[C@H](C)CCCC(C)C)O2 [D-α-tocopherol]
content ([3]; Day 0, HPLC, initial content set at 100%): 100% | content ([3]; Day 5, % of initial content): 96.7% | content ([3]; Day 10, % of initial content): 89.4% | content ([3]; Day 20, % of initial content): 78.7% | content ([3]; Day 30, % of initial content): 77.3% | content ([4]; near UV 90 μW/cm^2, Day 0, initial content set at 100%): 100% | content ([4]; near UV 90 μW/cm^2, Day 5): 97.8% | content ([4]; near UV 90 μW/cm^2, Day 10): 91.8% | content ([4]; near UV 90 μW/cm^2, Day 20): 88.5% | content ([5]; Month 0, initial content set at 100%): 100% | content ([5]; Month 1): 98.0% | content ([5]; Month 2): 99.1% | content [6]: 100.0%
